# According to patent US20140155445A1, “Compounds and Methods for Treating Cancer and Diseases of the Central Nervous System” (Osta Biotechnologies Inc., priority 2007, published 2014):
# Entries after “also recorded” stand apart in the source; their conditions may differ. Where two headings read alike, the source gives them in different places.
# Key:
# [1] = Pharmacokinetic evaluation of QC-199 in mouse plasma, IV infusion; assay type: in vivo
# Description: Regular male CD1 mice, 6 weeks old, were obtained from Charles River Laboratories, St. Zotique, PQ, Canada. The mice weighed 22-28 g. The experiments were approved by the Animal Care Committee, McGill University, Montreal, Quebec. The animals were housed in individual cages and were fed standard rodent chow and water ad libitum. Mice weights were measured with a digital balance accurate to 0.05 g and then received QC-199 at the indicated doses either orally, or via i.p. injections or following i.v. slow infusion. In the case of i.v. injection or i.v. infusion, mice were anesthetized using isoflurane-based system (DISPOMED, MODUFLEX COMPACT NRB, 3975-0800-000). For the infusion, a mini pump (NE-1800, New Era Pump Systems, Inc.) was used to infuse the compound via the tail vein during a 2 h period. In one study, blood and brain tissue samples were collected at various time points after administration of QC-199 using EDTA tubing (Das Original S-Monovette EDTA KE/1.2 ml lot.9094102 and Needle for S-Monovette 22G lot. 8073401) via cardiac puncture and immediately stored at 4° C. Serum was collected after the samples were centrifuged 2200×, 4° C. for 20 minutes and stored at −80° C. until analysis. For the brain tissue collection, skin of mice was removed and brain was carefully dissected out from the skull, transferred into a Petri dish, briefly washed with ice-cold phosphate-buffered saline (PBS), and immediately stored at −80° C. until further analysis.
# The assay of QC-199 in mouse plasma and brain samples was carried out using qualified LC/MS/MS assay methods.
# [2] = target: T1, human HO-1 (hHO-1) in transfected astroglia (Homo sapiens, UniProt P09601); test: HO enzyme activity (bilirubin formation) in hHO-1-transfected astrocytes; assay type: cell-based; settings: 6.5 μM
# T1 construct: containing the entire protein-coding region (866 bp) of the human HO-1 gene; expressed in transfected cells; host or cells: primary rat astrocytes, transient transfection with pcDNA3.1/Zeo.CMV.Flag.hHO-1 (Lipofectamine 2000)
# T1 sequence (P09601 1-288): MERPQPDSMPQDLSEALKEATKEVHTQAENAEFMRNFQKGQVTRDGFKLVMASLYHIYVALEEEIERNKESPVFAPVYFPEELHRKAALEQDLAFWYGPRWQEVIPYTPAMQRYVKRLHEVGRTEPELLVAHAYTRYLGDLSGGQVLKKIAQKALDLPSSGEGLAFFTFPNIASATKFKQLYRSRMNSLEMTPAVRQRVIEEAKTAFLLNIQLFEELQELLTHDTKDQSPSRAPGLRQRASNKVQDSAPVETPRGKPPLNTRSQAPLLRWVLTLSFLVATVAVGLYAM
# Description: Upon reaching >90% confluence, 1×10^6 cells were transiently transfected with 4.0 μg of plasmid DNA-Lipofectamine 2000 complex using Lipofectamine 2000 method according to manufacturer instructions (Invitrogen). […] 12 μg of plasmid DNA and 16 μl of Lipofectamine 2000 reagent were diluted in 1.5 mL opti-MEM I reduced serum medium and incubated for 5 minutes at room temperature with gentle mixing. The two solutions were combined, incubated at room temperature for 20 minutes to promote formation of DNA-lipid complexes and administered to the cells. 2 mL opti-MEM I reduced serum medium was added to the flasks to ensure coverage of the monolayer by the transfection mixture. Following incubation for 6 hours at 37° C., the transfection mixture was replaced with 10 mL of complete media without antibiotics.
# A young adult male rat was gas-anesthetized, laid on ice and systemically perfused with ice-cold 0.9% NaCl to get rid of all blood from liver. The liver was then excised on ice and transferred to a cold room (4° C.) and cut into small pieces in cold 0.9% NaCl (3 mL per gram of tissue) with surgical scissors in and placed in a 50 mL tube. The tissue chunks were homogenized with an electric tissue homogenizer and centrifuged at 150×g for […] at 4° C. Similarly, all of the following steps, including centrifugations, were performed at 4° C. The supernatant was centrifuged at 18,000×g for 10 min and further at 30,000×g for 30 min. A saturated solution of ammonium sulfate was added to the 30,000×g supernatant to attain 40% saturation and placed on ice for 10 min. The mixture was centrifuged at 10,000×g for 10 min and supernatant was recovered and transferred to a fresh tube. Sixty percent of saturation was achieved by adding saturation solution of ammonium sulfate to the supernatant. The mixed solution was centrifuged again at 10,000×g for 10 min and […]. […] The dialysate was centrifuged at 10,000 g for 10 min and pellet was discarded. The protein concentration of the supernatant was measured with Bradford reagent (BioRad laboratories, Hercules, Calif.) and adjusted to 10 mg/mL with 0.01 M KPO4, pH7.4. The supernatant was aliquoted and stored at −20° C. ready for use.
# Cytosol extracts were prepared for HO activity measurement by the method of Ryter (Ryter, Kvam, Tyrrell 2000). Astroglial monolayers were washed with ice-cold PBS and scraped in ice-cold PBS-EDTA (1 mM, pH 8.0) containing 50 μg/mL protease inhibitor (AEBSF), centrifuged at 150×g at 4° C. and resuspended in 20 mM Tris-HCl (pH 7.4) and 0.25 M sucrose containing protease inhibitors. Cell suspensions were sonicated on ice 2×15 s at 20 W and centrifuged for 20 min at 4° C. at 15,000×g. Protein concentration of supernatant was measured with Bradford method. […] Reaction mixtures were incubated at 37° C. in the dark for 60 min with hard vortex every 10 min. […] HO activity was calculated as nanomoles bilirubin per milligram protein per min, assuming an extinction coefficient of 40/mM/cm in chloroform (see FIG. 8).
# Cells were rinsed twice with cold PBS (pH 7.4) and scraped in iced lysis buffer consisting of 1% Nonidet P-40, 50 mM Tris.HCl (pH 7.4), 30 mM NaCl, 25 mM β-glycerophosphate, 10 mM EDTA, 10 mM EGTA, 1 mM MgCl2, and protease inhibitors (10 mM sodium fluoride, 50 μg/mL AEBBSF, 5 μg/mL leupeptin, 5 μg/mL pepstatin, 5 μg/mL aprotinin). […] Protein contents were determined using the Bradford method. […]
# [3] = tested on: HCT-116 colorectal carcinoma; test: Colorectal carcinoma model HCT-116 in SCID mice; assay type: in vivo, human
# Source text: Control groups received the vehicle alone.
# [4] = male, CD-1, mouse, in vivo, IV infusion
SMILES,AUC_%Extrap_obs ([1]; IV infusion) [%],"AUC(0-inf) [1, 4] [µg·h/mL]","Tmax [1, 4] [h]","half-life ([1]; male, CD-1, mouse, in vivo, IV infusion, from Lambda z, read-out: T½ (converted)) [h]","AUC ([1]; male, CD-1, mouse, in vivo, IV infusion, read-out: AUCall (0-24 h)) [µg·h/mL]","Cmax ([1]; mouse, 90 min IV infusion, male CD-1 mice) [ng/mL]","HO activity in HO-1-transfected astroglia ([2]; 18 h, hHO-1-transfected cells, hydrochloride)",expression level of flag-tagged HO-1 protein ([2]; transiently transfected cells),"mouse mortality ([3]; 60 mg/kg, HCT-116 model (FIG. 25))","reduction of tumor volume at the time of sacrifice compared to control ([3]; QC-56 60 mg/kg/ip, 5-FU 60 mg/kg/ip reduced to 40 mg/kg)","tolerability (50 mg/kg, multiple administrations)","toxicity in combination studies (QC-56 60 mg/kg i.p. 4 cycles, chemotherapy drugs i.p.)","tolerability (multiple doses up to 100 mg/kg (intraperitoneal, intravenous), hydrochloride)","tolerability (repeated doses of 30 and 60 mg/kg i.p., SCID mice, hydrochloride)","toxic single dose (single intraperitoneal dose, SCID mice) [mg/kg]"
"Brc1ccc(CCCCn2ccnc2)cc1.Cl [QC-199, 1-[4-(4-bromophenyl)butyl]-1H-imidazole hydrochloride]",37,224,3,18,141,8000,–,–,–,–,–,–,–,–,–
"Brc1ccc(CCC2(Cn3ccnc3)OCCO2)cc1.Cl [QC-56, 1-((2-(2-(4-Bromophenyl)ethyl)-1,3-dioxolan-2-yl)methyl)-1H-imidazole hydrochloride]",–,–,–,–,–,–,suppressed to levels akin to those of non-transfected and sham-transfected controls; also recorded: significantly attenuated; also recorded: significantly decreased,without affecting the expression level of flag-tagged HO-1 protein,"but not QC-56, induced mortality",approximately 23%,well tolerated,No apparent toxicity,well tolerated with no apparent signs of toxicity; also recorded: well tolerated,well tolerated at repeated doses of 30 and 60 mg/kg with minor changes in body weights with no apparent toxicity; also recorded: well tolerated,> 100
